Experiments:
Wistar rats = test: Anticonflict test (water drinking behavior under electroshock); type: in vivo; conditions: oral; for Relieving rate of anxiety: one hour before experiment, male Wistar rats; for anxiolytic effect (in words): dose of 1.0 mg/kg
Experimental: Wistar rats (males weighing 140 to 160 g) were used for experiment in groups of 11 to 14.
Compound 1'a-1, 1'a-5, 1'b-1, 1'''-8, 1'''-9, the above comparison compound, diazepam or buspirone was suspended in a 0.5 % sodium carboxymethyl cellulose solution, and the suspension was orally given to the animal in a volume of 5 ml/kg one hour before the start of experiment.
With reference to a method described in "Process in Anxiolytics and Antidepressants," edited by Showa Ueki and Tatsuo Furukawa, Ishiyaku Shuppansha, 56∼ 59 (1981), the agents were tested using experimental boxes having grid floor and a metal drinking tube in the floor. No water was supplied to the rats for 48 hours before the experiment. Upon lapse of first 24 hours, each group of rats were placed into the experimental box, permitted access to water for 30 seconds and caused to recognize the metal drinking tube. Upon lapse of further 24 hours with access to water prevented, the rats were placed into the box again and permitted access to water on condition that an electric current was passed between the metal drinking tube and the grid to give an electroshock for every 20 times of water drinking behavior to measure the frequency of water drinking behavior for 3 minutes. Anxiolytic effect was evaluated as relieving rate of anxiety as calculated by the following equation. Relieving rate of anxiety = (C-B)/(A-B) × 100 [formula] • A: Frequency of water drinking behavior of a control group without an electroshock and no anxiety (frequency under no punishment) • B: Frequency of water drinking behavior of a group with an electroshock and anxiety (under punishment) and having been administerd a solvent containing no test compound (frequency under solvent-control group) • C: Frequency of water drinking behavior of a group having been administered a test compound and relieved anxiety (frequency under test compound-administered group) Table 7

ddY mice [1] = conditions: mouse, in vivo, po, 300 mg/kg
Experimental: (§1) Compound 1'a-1, the comparison compound, diazepam or buspirone was suspended in a 0.5 % sodium carboxymethyl cellulose solution, and the suspension was orally administered to 3- to 4-week-old male ddY mice (in groups of 5) in a volume of 10 ml/kg one hour before the start of experiment.
With reference to a method described in Japan. J. Pharmacol., 49. 337∼ 349(1989), the foreleg of the mouse was hung on a horizontal wire, having a diameter of 1.2 mm and fixed at a level of 30 cm, three times consecutively. […] Thus, ED50 was determined for evaluation.

ddY mice [2] = conditions: mouse, in vivo, po, 300 mg/kg; remark: listed apart in the source
Experimental: as §1
The test was conducted with reference to a method described in "Evaluation of Medicinal Efficacies (1), Pharmacological Test Method (I ), Basic Lectures on Development of Pharmaceuticals," 50∼ 54(1971). More specifically, the group of mice were given the test drug and thereafter measured the amount of spontaneous locomotor activity for 10 minutes per mouse using Animex MK-110 (Muromachi Kikai Co., Ltd.).

ddY mice [3] = conditions: mouse, in vivo, po, 300 mg/kg; remark: listed apart in the source
Experimental: (§2) Compound 1'a-1, the comparison compound, diazepam or buspirone was suspended in a 0.5 % sodium carboxymethyl cellulose solution, and the suspension was orally administered to 3- to 4-week-old male ddY mice (in groups of 6) in a volume of 10 ml/kg one hour before the start of experiment.
The test was conducted with reference to a method described in Japan. J. Pharmacol., 49, 337∼ 349(1989). More specifically, the group of mice were intraperitoneally given 25 % ethanol at a dose of 20 ml/kg and checked for the time interval between loss and recovery of the righting reflex.

ddY mice [4] = test: Anticonvulsant effect (pentylenetetrazol-induced convulsion method); type: in vivo; conditions: for anticonvulsant effect: dose of 300 mg/kg, oral, male ddY mice; for ED50: Mus musculus, po, 1 h, read-out: ED50 (anticonvulsant effect)
Experimental: as §2
The test was conducted with reference to a method described in "Evaluation of Medicinal Efficacies (1), Pharmacological Test Method (I), Basic Lectures on Development of Pharmaceuticals," 167∼ 172(1971).

ddY mice [5] = test: Acute toxicity test; type: in vivo; conditions: oral, 6 male ddY mice, observed for 3 days
From the text: Five-week-old male ddY mice were used in groups of 6. […]

SMILES	Relieving rate of anxiety (Wistar rats; dose 0.01 mg/kg) [%]	Relieving rate of anxiety (Wistar rats; dose 0.1 mg/kg) [%]	Relieving rate of anxiety (Wistar rats; dose 1.0 mg/kg) [%]	muscle relaxant effect (ddY mice [1])	sedative effect (ddY mice [2])	ethanol enhancing effect (ddY mice [3])	anticonvulsant effect (ddY mice [4])	Number of death (ddY mice [5]; dose 2000 mg/kg)	Number of death (ddY mice [5]; dose 3000 mg/kg)	anxiolytic effect (in words) (Wistar rats)	ED50 (ddY mice [4]) [mg/kg]	decreased anxiety (Wistar rats; doses of 0.01 to 0.1 mg/kg)
COc1ccc(C(=O)N2C(=O)CC[C@H]3[C@H](O)CC[C@H]32)cc1 (racemic) [Compound 1'a-1, (1RS, 6RS, 7RS)-7-hydroxy-2-(4-methoxybenzoyl)-2-azabicyclo-[4.3.0]nonan-3-one]	93	86	76	no muscle relaxant effect	no sedative effect	no ethanol enhancing effect	no anticonvulsant effect	0	2			
O=C1CC2(CCCC2)CC(=O)N1CCCCN1CCN(c2ncccn2)CC1 [Buspirone]			2							almost ineffective	≥ 300	
O=C1CC2CCCCC2N1 (stereo not shown) [Comparison Compound, 2-azabicyclo[3.4.0]nonane-3-one]	43	44	46	no muscle relaxant effect	no sedative effect	no ethanol enhancing effect	no anticonvulsant effect	1	5			up to 50%
CN1C(=O)CN=C(c2ccccc2)c2cc(Cl)ccc21 [Diazepam]			-3							almost ineffective	0.35	

Source: patent EP0790237B1, “BICYCLOLACTAM COMPOUNDS, USE OF THE SAME AND INTERMEDIATE IN THE PRODUCTION OF THE SAME” (TAIHO PHARMACEUTICAL CO., LTD., priority 1995, dated 1996)
